Measured values reported in patent US20050153932A1, “Controlled muscle relaxation” (priority 2003, published 2005).

Columns and labels:
[1] = system: neuromuscular block in a patient; conditions: endotracheal intubation; cited from earlier work
[2] = system: M. adductor pollicis contractions; assay: Vecuronium-induced block of M. adductor pollicis contractions (TOF stimulation) and effect of Org 25969 in anaesthetised Rhesus monkeys; type: in vivo, Rhesus monkey; conditions: for 0.50-0.90 TOF ratio interval / 25-75% recovery index / time to 25% recovery of T1 / time to 90% recovery of T1 / time to TOF ratio 0.90: spontaneous recovery
Protocol: • T1: first twitch: amplitude of the first response to TOF stimulation, expressed as percentage of control T1 (%). • T4/T1 ratio: the ratio of T4 over T1 (within one TOF stimulus) expressed as decimals.
Female Rhesus monkeys were starved overnight and sedated with 10 mg·kg^−1 ketamine i.m., followed by i.v. injection of 25 mg·kg^−1 pentobarbitone sodium and subsequent infusion of 5-10 mg·kg^−1hr^−1. The animals were intubated and ventilated with a mixture of oxygen and nitrous oxide (2:3), using a ventilator. The expired CO2 level was measured using a capnograph. The tidal volume was adjusted to obtain a CO2 level of approximately 4.5%. Oxygen saturation was measured via a probe on the earlobe using a pulse oxymeter. Blood pressure was measured non-invasively with a cuff placed on the tail. The ECG was recorded and heart rate was measured. Rectal temperature was measured and body temperature was kept at 37-38° C. using a heating blanket. The right hand and right arm of the animal were fixed to a frame using surgical tape. The thumb was connected to a force transducer. A pre-load of 200-500 mN was applied. Two needle electrode were placed near the N. ulnaris and the nerve was stimulated with train-of-four pulses (pulse duration: 2 ms, train-frequency: 0.07 Hz). At the end of the experiment, the animals were allowed to recover from anesthesia. Appropriate recovery care was given to all animals. Two groups of monkeys were used to assess the reversal effects of Org 25969 against the neuromuscular blocking agents rocuronium (Esmeron®/Zemuron®) and vecuronium (Norcuron®). In the first group, animals initially received an intravenous bolus injection of a 1×ED90 dose of rocuronium bromide to induce neuromuscular block, followed by spontaneous recovery of the twitches. After complete recovery of the twitches, each group received a second and larger 5×ED90 dose of rocuronium followed by spontaneous recovery in one subgroup, whereas the other subgroup received an intravenous bolus dose of 1150 nmol·kg^−1 Org 25969 as soon as all twitches had disappeared. In the vecuronium groups of animals, the same protocol was used, but rocuronium was replaced by vecuronium. Rocuronium bromide and vecuronium bromide were dissolved in a citric acid/phosphate/mannitol buffer (pH 4.0). Org 25969 was dissolved in saline.

[3] = 5× ED90 vecuronium, spontaneous recovery subgroup

Row | Structure (SMILES) | duration of action [1] [min] | onset [1] [min] | onset time ([2]; 1× ED90 vecuronium) [min] | 0.50-0.90 TOF ratio interval ([2]; 1× ED90 vecuronium) [min] | 25-75% recovery index ([2]; 1× ED90 vecuronium) [min] | time to 25% recovery of T1 ([2]; 1× ED90 vecuronium) [min] | time to 90% recovery of T1 ([2]; 1× ED90 vecuronium) [min] | time to TOF ratio 0.90 ([2]; 1× ED90 vecuronium) [min] | block ([2]; 1× ED90 vecuronium, Mean ± SEM, n = 4) [%] | 0.50-0.90 TOF ratio interval ([2]; 5× ED90 vecuronium) [min] | 25-75% recovery index ([2]; 5× ED90 vecuronium) [min] | time to 25% recovery of T1 ([2]; 5× ED90 vecuronium) [min] | time to 90% recovery of T1 ([2]; 5× ED90 vecuronium) [min] | time to TOF ratio 0.90 ([2]; 5× ED90 vecuronium) [min] | block [2, 3] [%] | onset time [2, 3] [min]
1 | C[N+](C)(C)CCOC(=O)CCC(=O)OCC[N+](C)(C)C [suxamethonium] | 5 to 8 | ~1 |  |  |  |  |  |  |  |  |  |  |  |  |  | 
2 | CC(=O)O[C@H]1C[C@@H]2CC[C@@H]3[C@H](CC[C@@]4(C)[C@H]3C[C@H]([N+]3(C)CCCCC3)[C@@H]4OC(C)=O)[C@@]2(C)C[C@@H]1N1CCCCC1 [vecuronium, vecuronium bromide] |  |  | 4.3 ± 0.6 | 4.9 ± 0.5 | 5.4 ± 0.8 | 8.6 ± 1.0 | 18.1 ± 1.9 | 17.2 ± 1.6 | 91.5 ± 1.7 | 11.8 ± 1.3 | 9.6 ± 2.0 | 28.6 ± 2.8 | 44.0 ± 4.6 | 49.0 ± 4.7 | 100.0 ± 0.0 | 1.0 ± 0.1
